Experimental data from US11180462B2, “Microbiocidal oxadiazole derivatives” (SYNGENTA PARTICIPATIONS AG, priority 2015, dated 2021).

How the values were obtained:
[1] = tested on: Puccinia recondita f. Sp. Tritici; test: Fungicidal activity against Puccinia recondita f. sp. tritici / wheat / leaf disc preventative (brown rust); type: in vivo; settings: foliar, 200 ppm in the applied formulation, wheat leaf segments, preventative, compared to untreated control leaf disks, read-out: disease control
How it was run: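 Preventative leaf-segment test, wheat cv. Kanzler on water agar. Spray compound at 200 ppm, inoculate with spores 1 day later; 19° C., 75% rh, 12/12 h light. Read-out: % disease control vs untreated, 7 to 9 days after application.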

[2] = tested on: Puccinia recondita f. Sp. Tritici; test: Fungicidal activity against Puccinia recondita f. sp. tritici / wheat / leaf disc curative (brown rust); type: in vivo; settings: foliar, 24 h, 200 ppm in the applied formulation, wheat leaf segments, curative (applied 1 day after inoculation), compared to untreated control leaf disks, read-out: disease control
How it was run: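 Wheat cv. Kanzler leaf segments on agar, inoculated with rust spore suspension, kept dark at 19° C and 75% RH; formulated compound sprayed 1 day post-inoculation. Incubated 19° C, 75% RH, 12 h light/12 h dark; percent disease control vs untreated scored 6 to 8 days after application.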

Phakopsora Pachyrhizi = test: Fungicidal activity against Phakopsora pachyrhizi / soybean / leaf disc preventative (Asian soybean rust); type: in vivo; settings: foliar, 200 ppm in the applied formulation, soybean leaf disks, compared to untreated control leaf disks, read-out: disease control
How it was run: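 Preventative soybean leaf-disc test: discs on water agar sprayed with diluted formulated compound, inoculated one day later with spores on the lower surface. Held 24–36 h dark at 20°C, 75% rh, then 12 h light/day; percent disease control versus untreated discs scored 12–14 days after application.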

[3] = tested on: Glomerella lagenarium (Colletotrichum lagenarium); test: Fungicidal activity against Glomerella lagenarium (Colletotrichum lagenarium) liquid culture / cucumber / preventative (anthracnose); type: cell-based; settings: Colletotrichum orbiculare; 20 ppm in the applied formulation; liquid culture (PDB), growth inhibition measured photometrically after 3 to 4 days; compared to untreated control; read-out: disease control
How it was run: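 Photometric read-out of fungal growth after 2–7 days, expressed as percent antifungal activity versus untreated check. Cryo-stored conidia in PDB; compound at 20 ppm; dark, 24 °C, 96% RH.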

C=CCN(Cc1ccc(-c2noc(C(F)(F)F)n2)cc1)C(=O)C1CC1 [Compound 1.494, N-allyl-N-[[4-[5-(trifluoromethyl)-1,2,4-oxadiazol-3-yl]phenyl]methyl]-cyclopropane-carboxamide]
≥ 80%: pest or weed control at 200 ppm [1] | pest or weed control at 200 ppm [2] | pest or weed control at 200 ppm (Phakopsora Pachyrhizi) | inhibition of growth at 20 ppm [3]

CON(Cc1ccc(-c2noc(C(F)(F)F)n2)cc1)C(=O)Cc1ccccc1 [Compound 1.4, N-methoxy-2-phenyl-N-[[4-[5-(trifluoromethyl)-1,2,4-oxadiazol-3-yl]phenyl]methyl]-acetamide]
≥ 80%: pest or weed control at 200 ppm [1] | pest or weed control at 200 ppm [2] | pest or weed control at 200 ppm (Phakopsora Pachyrhizi) | inhibition of growth at 20 ppm [3]

CCCN(Cc1ccc(-c2noc(C(F)(F)F)n2)cc1)C(=O)CC1CC1 [Compound 1.669, 2-cyclopropyl-N-propyl-N-[[4-[5-(trifluoromethyl)-1,2,4-oxadiazol-3-yl]phenyl]methyl]-acetamide]
≥ 80%: pest or weed control at 200 ppm [1] | pest or weed control at 200 ppm [2] | pest or weed control at 200 ppm (Phakopsora Pachyrhizi) | inhibition of growth at 20 ppm [3]

CON(Cc1ccc(-c2noc(C(F)(F)F)n2)cc1)C(=O)NCc1ccco1 [Compound 3.24, 3-(2-furylmethyl)-1-methoxy-1-[[4-[5-(trifluoromethyl)-1,2,4-oxadiazol-3-yl]phenyl]methyl]urea]
≥ 80%: pest or weed control at 200 ppm [1] | pest or weed control at 200 ppm [2] | pest or weed control at 200 ppm (Phakopsora Pachyrhizi) | inhibition of growth at 20 ppm [3]

C=CCN(Cc1ccc(-c2noc(C(F)(F)F)n2)cc1)C(=O)COC [Compound 1.479, N-allyl-2-methoxy-N-[[4-[5-(trifluoromethyl)-1,2,4-oxadiazol-3-yl]phenyl]methyl]-acetamide]
≥ 80%: pest or weed control at 200 ppm [1] | pest or weed control at 200 ppm [2] | pest or weed control at 200 ppm (Phakopsora Pachyrhizi) | inhibition of growth at 20 ppm [3]

CCCN(Cc1ccc(-c2noc(C(F)(F)F)n2)cc1)C(=O)COC [Compound 1.575, 2-methoxy-N-propyl-N-[[4-[5-(trifluoromethyl)-1,2,4-oxadiazol-3-yl]phenyl]methyl]-acetamide]
≥ 80%: pest or weed control at 200 ppm [1] | pest or weed control at 200 ppm [2] | pest or weed control at 200 ppm (Phakopsora Pachyrhizi) | inhibition of growth at 20 ppm [3]

C#CCN(Cc1ccc(-c2noc(C(F)(F)F)n2)cc1)C(=O)c1ccccc1 [Compound 1.202, N-prop-2-ynyl-N-[[4-[5-(trifluoromethyl)-1,2,4-oxadiazol-3-yl]phenyl]methyl]-benzamide]
≥ 80%: pest or weed control at 200 ppm [1] | pest or weed control at 200 ppm [2] | pest or weed control at 200 ppm (Phakopsora Pachyrhizi) | inhibition of growth at 20 ppm [3]

COCCN(Cc1ccc(-c2noc(C(F)(F)F)n2)cc1)C(=O)C(C)OC (centres unmarked) [Compound 1.359, 2-methoxy-N-(2-methoxyethyl)-N-[[4-[5-(trifluoromethyl)-1,2,4-oxadiazol-3-yl]phenyl]methyl]-propanamide]
≥ 80%: pest or weed control at 200 ppm [1] | pest or weed control at 200 ppm [2] | pest or weed control at 200 ppm (Phakopsora Pachyrhizi) | inhibition of growth at 20 ppm [3]

COCCC(=O)N(O)Cc1ccc(-c2noc(C(F)(F)F)n2)cc1 [Compound 1.758, N-hydroxy-3-methoxy-N-[[4-[5-(trifluoromethyl)-1,2,4-oxadiazol-3-yl]phenyl]methyl]-propanamide]
≥ 80%: pest or weed control at 200 ppm [1] | pest or weed control at 200 ppm [2] | pest or weed control at 200 ppm (Phakopsora Pachyrhizi) | inhibition of growth at 20 ppm [3]

O=C(OCCN(Cc1ccc(-c2noc(C(F)(F)F)n2)cc1)C(=O)C1CCCO1)C1CCCO1 (centres unmarked) [Compound 1.727, 2-[tetrahydrofuran-2-carbonyl-[[4-[5-(trifluoromethyl)-1,2,4-oxadiazol-3-yl]phenyl]methyl]-amino]ethyl tetrahydrofuran-2-carboxylate]
≥ 80%: pest or weed control at 200 ppm [1] | pest or weed control at 200 ppm [2] | pest or weed control at 200 ppm (Phakopsora Pachyrhizi) | inhibition of growth at 20 ppm [3]

CCC(=O)N(Cc1ccc(-c2noc(C(F)(F)F)n2)cc1)C(C)C [Compound 1.589, N-isopropyl-N-[[4-[5-(trifluoromethyl)-1,2,4-oxadiazol-3-yl]phenyl]methyl]-propanamide]
≥ 80%: pest or weed control at 200 ppm [1] | pest or weed control at 200 ppm [2] | pest or weed control at 200 ppm (Phakopsora Pachyrhizi) | inhibition of growth at 20 ppm [3]

CN(Cc1ccc(-c2noc(C(F)(F)F)n2)cc1)C(=O)C1CCC1 [Compound 1.518, N-methyl-N-[[4-[5-(trifluoromethyl)-1,2,4-oxadiazol-3-yl]phenyl]methyl]-cyclobutane-carboxamide]
≥ 80%: pest or weed control at 200 ppm [1] | pest or weed control at 200 ppm [2] | pest or weed control at 200 ppm (Phakopsora Pachyrhizi) | inhibition of growth at 20 ppm [3]

C#CCN(Cc1ccc(-c2noc(C(F)(F)F)n2)cc1)C(=O)CC1CC1 [Compound 1.167, 2-cyclopropyl-N-prop-2-ynyl-N-[[4-[5-(trifluoromethyl)-1,2,4-oxadiazol-3-yl]phenyl]methyl]-acetamide]
≥ 80%: pest or weed control at 200 ppm [1] | pest or weed control at 200 ppm [2] | pest or weed control at 200 ppm (Phakopsora Pachyrhizi) | inhibition of growth at 20 ppm [3]

O=C(CC1CC1)N(Cc1ccc(-c2noc(C(F)(F)F)n2)cc1)C1CC1 [Compound 1.99, N,2-dicyclopropyl-N-[[4-[5-(trifluoromethyl)-1,2,4-oxadiazol-3-yl]phenyl]methyl]-acetamide]
≥ 80%: pest or weed control at 200 ppm [1] | pest or weed control at 200 ppm [2] | pest or weed control at 200 ppm (Phakopsora Pachyrhizi) | inhibition of growth at 20 ppm [3]

CCC(C)N(Cc1ccc(-c2noc(C(F)(F)F)n2)cc1)C(=O)C1CCCCO1 (centres unmarked) [Compound 1.368, N-sec-butyl-N-[[4-[5-(trifluoromethyl)-1,2,4-oxadiazol-3-yl]phenyl]methyl]-tetrahydropyran-2-carboxamide]
≥ 80%: pest or weed control at 200 ppm [1] | pest or weed control at 200 ppm [2] | pest or weed control at 200 ppm (Phakopsora Pachyrhizi) | inhibition of growth at 20 ppm [3]

CON(Cc1ccc(-c2noc(C(F)(F)F)n2)cc1)C(=O)Cc1ccc(Cl)cc1 [Compound 1.49, 2-(4-chlorophenyl)-N-methoxy-N-[[4-[5-(trifluoromethyl)-1,2,4-oxadiazol-3-yl]phenyl]methyl]-acetamide]
≥ 80%: pest or weed control at 200 ppm [1] | pest or weed control at 200 ppm [2] | pest or weed control at 200 ppm (Phakopsora Pachyrhizi) | inhibition of growth at 20 ppm [3]

CON(Cc1ccc(-c2noc(C(F)(F)F)n2)c(F)c1F)C(=O)C1CCCO1 (centres unmarked) [Compound 1.577, N-[[2,3-difluoro-4-[5-(trifluoromethyl)-1,2,4-oxadiazol-3-yl]phenyl]methyl]-N-methoxy-tetrahydrofuran-2-carboxamide]
≥ 80%: pest or weed control at 200 ppm [1] | pest or weed control at 200 ppm [2] | pest or weed control at 200 ppm (Phakopsora Pachyrhizi) | inhibition of growth at 20 ppm [3]

CC1(C(=O)N(O)Cc2ccc(-c3noc(C(F)(F)F)n3)cc2)CC1 [Compound 1.764, N-hydroxy-1-methyl-N-[[4-[5-(trifluoromethyl)-1,2,4-oxadiazol-3-yl]phenyl]methyl]-cyclopropane-carboxamide]
≥ 80%: pest or weed control at 200 ppm [1] | pest or weed control at 200 ppm [2] | pest or weed control at 200 ppm (Phakopsora Pachyrhizi) | inhibition of growth at 20 ppm [3]

O=C(C1CCOC1)N(O)Cc1ccc(-c2noc(C(F)(F)F)n2)cc1 (centres unmarked) [Compound 1.756, N-hydroxy-N-[[4-[5-(trifluoromethyl)-1,2,4-oxadiazol-3-yl]phenyl]methyl]-tetrahydrofuran-3-carboxamide]
≥ 80%: pest or weed control at 200 ppm [1] | pest or weed control at 200 ppm [2] | pest or weed control at 200 ppm (Phakopsora Pachyrhizi) | inhibition of growth at 20 ppm [3]

COCCN(Cc1ccc(-c2noc(C(F)(F)F)n2)cc1)C(=O)C1CCCO1 (centres unmarked) [Compound 1.355, N-(2-methoxyethyl)-N-[[4-[5-(trifluoromethyl)-1,2,4-oxadiazol-3-yl]phenyl]methyl]-tetrahydrofuran-2-carboxamide]
≥ 80%: pest or weed control at 200 ppm [1] | pest or weed control at 200 ppm [2] | pest or weed control at 200 ppm (Phakopsora Pachyrhizi) | inhibition of growth at 20 ppm [3]

COCCN(Cc1ccc(-c2noc(C(F)(F)F)n2)cc1)C(=O)CC1CC1 [Compound 1.331, 2-cyclopropyl-N-(2-methoxyethyl)-N-[[4-[5-(trifluoromethyl)-1,2,4-oxadiazol-3-yl]phenyl]methyl]-acetamide]
≥ 80%: pest or weed control at 200 ppm [1] | pest or weed control at 200 ppm [2] | pest or weed control at 200 ppm (Phakopsora Pachyrhizi) | inhibition of growth at 20 ppm [3]

O=C(C1CCC1)N(Cc1ccc(-c2noc(C(F)(F)F)n2)cc1)C1CC1 [Compound 1.112, N-cyclopropyl-N-[[4-[5-(trifluoromethyl)-1,2.4-oxadiazol-3-yl]phenyl]methyl]-cyclobutane-carboxamide]
≥ 80%: pest or weed control at 200 ppm [1] | pest or weed control at 200 ppm [2] | pest or weed control at 200 ppm (Phakopsora Pachyrhizi) | inhibition of growth at 20 ppm [3]

C#CCN(Cc1ccc(-c2noc(C(F)(F)F)n2)cc1)C(=O)C(C)(C)C [Compound 1.182, 2,2-dimethyl-N-prop-2-ynyl-N-[[4-[5-(trifluoromethyl)-1,2,4-oxadiazol-3-yl]phenyl]methyl]-propanamide]
≥ 80%: pest or weed control at 200 ppm [1] | pest or weed control at 200 ppm [2] | pest or weed control at 200 ppm (Phakopsora Pachyrhizi) | inhibition of growth at 20 ppm [3]
